Source: article PMC11975176 (Clinical Pharmacology in Drug Development, 2025)
Read-outs that look alike come from different tables or passages of the source.

Tests used:
[1] = cited from earlier work
[2] = NA (ETV, TFV) plasma PK (NCA) with coadministered bepirovirsen in the Phase 2b B-Clear study; type: in vivo; conditions: human, oral; for concentration at 24 h: B-Clear, mean ± SD, read-out: Ctau; for AUC(0-t): read-out: AUC0-24
Method: NA plasma PK parameters were calculated using NCA methods with Phoenix WinNonlin Version 8.1.0.3530. PK parameters included Cmax, AUC from time zero to 24 hours after dosing, and plasma concentration at the end of the dosing interval. Calculations were based on the actual sampling times. PK samples in the B‐Clear study were assayed for bepirovirsen, ETV, and TFV in plasma at the bioanalytical facility Labcorp Drug Development, Shanghai, China, using validated liquid–liquid extraction for bepirovirsen, solid‐phase extraction for ETV, and protein precipitation for TFV assays followed by high‐performance liquid chromatography with mass spectrometric detection. All plasma samples were assayed within the established long‐term frozen, freeze/thaw, and processed extract stability.

Cmax ([2]; 0.5 mg) [ng/mL] | concentration at 24 h ([2]; 0.5 mg, ETV 0.5 mg once daily with bepirovirsen) [ng/mL] | AUC(0-t) ([2]; 0.5 mg) [ng·h/mL] | Cmax ([2]; 25 mg) [ng/mL] | AUC(0-t) ([2]; 25 mg) [ng·h/mL] | Cmax ([2]; 300 mg) [ng/mL] | AUC(0-t) ([2]; 300 mg) [ng·h/mL] | concentration at 24 h ([2]; TFV administered as TAF 25 mg once daily with bepirovirsen) [ng/mL] | concentration at 24 h ([2]; TFV administered as TDF 245 or 300 mg once daily with bepirovirsen) [ng/mL] | SMILES | Cmax ([1]; in vivo, 0.5 mg) [ng/mL] | tmax ([1]; in vivo) | tmax ([1]; after dosing) | AUC0-24 ([1]; in vivo, 25 mg) | Cmax ([1]; in vivo, 25 mg) | AUC0-24 ([1]; in vivo, 300 mg) [ng·h/mL]
6.5 ± 2.3 | 0.5 ± 0.1 | 24.4 ± 6.8 | – | – | – | – | – | – | C=C1[C@H](CO)[C@@H](O)C[C@@H]1n1cnc2c(=O)[nH]c(N)nc21 [ETV, entecavir] | 4.2 | approximately 1 hour | – | – | – | –
– | – | – | 19.4 ± 5.9 | 308 ± 105 | 319 ± 95.9 | 2750 ± 661 | 10.3 ± 3.5 | 57 ± 17.1 | C[C@H](Cn1cnc2c(N)ncnc21)OCP(=O)(O)O [TFV, tenofovir] | – | – | approximately 1 hour | 400 (35.2) ng•h/mL | 30.0 (24.6) ng/mL | 2290 ± 690
